# In US8476315B2, “N-hydroxy C29-amide derivatives of oleandrane” (Onepharm Research & Development GmbH, priority 2009, dated 2013):
# Assays:
# [1] = test system: TNFα; assay: TNFα expression; assay type: cell-based
# From the text: Accordingly, in a further embodiment of the present invention, there is included a method of treating inflammatory diseases comprising administering a TNFα-downregulating effective amount of a compound of the invention to a subject in need thereof. A person skilled in the art would be able to identify TNFα-downregulating compounds of the invention by contacting one or more cells with a compound of the invention and assaying for the presence of one TNFα and comparing the levels of TNFα in the one or more cells with that of controls. Such methods are known in the art and are described in the examples herein below.
# [2] = molecular target: T1, 11β-HSD1 (Homo sapiens, UniProt P28845); assay: 11β-HSD1 activity in lysates of stably transfected HEK-293 cells; assay type: biochemical; settings: cell lysate
# T1 construct: expressed in transfected cells
# T1 sequence (P28845 whole entry): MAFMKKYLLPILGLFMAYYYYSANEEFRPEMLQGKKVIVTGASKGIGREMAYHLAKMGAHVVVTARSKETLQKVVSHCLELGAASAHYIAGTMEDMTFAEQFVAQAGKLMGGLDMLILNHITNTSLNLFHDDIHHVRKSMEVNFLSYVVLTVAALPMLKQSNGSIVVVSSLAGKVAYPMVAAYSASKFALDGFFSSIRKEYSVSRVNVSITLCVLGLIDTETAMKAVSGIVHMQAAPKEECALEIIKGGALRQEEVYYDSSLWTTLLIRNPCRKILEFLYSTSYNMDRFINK
# Experimental: (§1) Cell culture media were purchased from Invitrogen, Basel, Switzerland. [1,2,6,7-3H]-cortisol was from Amersham Pharmacia, Dubendorf, Switzerland. [1,2,6,7-3H]-cortisone was produced by incubating 1 mCi of [1,2,6,7-3H]-cortisol with 1 mg of lysate of HEK-293 cells expressing 11β-HSD2 in the presence of 1 mM NAD+. Incubation was for 16 h at 37° C. […] The product was run for a second chromatographic purification step on the same TLC system. […] All other chemicals were from Fluka AG, Buchs, Switzerland and were of the highest grade available.
# HEK-293 cells were transfected with the plasmid for expression of carboxy-terminally FLAG-epitope tagged 11β-HSD1 or 11β-HSD2, respectively, that were described previously. […] Non-resistant cells were removed by replacing the cell culture medium every third day for 3 weeks.
# For determination of oxidative activity of 11β-HSD enzymes, cells were lysed by sonication and the cell lysate was diluted 1:12 in buffer TS2 (at 4° C.).
# (§2) Similarly, reductase activity was measured in a reaction containing NADPH, 30 nCi of [1,2,6,7-3H]-cortisone and unlabeled cortisone, whereby final concentrations were 400 μM NADPH and 10 nM cortisone. […] Activities were determined measuring the conversion of either radiolabeled cortisone or cortisol for 5-20 min using substrate concentrations in the range between 10 nM and 10 μM. 11β-HSD1 activities were measured immediately after cell disruption. […] Results are expressed as mean±S.D. and consist of at least three independent measurements.
# [3] = molecular target: T2, 11β-HSD2 (Homo sapiens, UniProt P80365); assay: 11β-HSD2 activity in lysates of stably transfected HEK-293 cells; assay type: biochemical; settings: cell lysate
# T2 construct: expressed in transfected cells
# T2 sequence (P80365 1-405): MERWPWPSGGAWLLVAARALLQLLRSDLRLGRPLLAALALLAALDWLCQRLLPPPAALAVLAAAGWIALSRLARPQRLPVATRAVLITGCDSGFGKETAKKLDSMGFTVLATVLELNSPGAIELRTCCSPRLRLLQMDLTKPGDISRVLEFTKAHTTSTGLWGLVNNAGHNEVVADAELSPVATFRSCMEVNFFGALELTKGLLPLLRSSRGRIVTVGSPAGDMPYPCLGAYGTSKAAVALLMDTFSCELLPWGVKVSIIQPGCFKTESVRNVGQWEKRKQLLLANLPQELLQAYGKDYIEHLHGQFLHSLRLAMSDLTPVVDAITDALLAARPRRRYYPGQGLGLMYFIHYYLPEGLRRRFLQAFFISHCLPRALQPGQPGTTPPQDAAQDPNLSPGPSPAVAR
# Experimental: as §1
# HEK-293 cells were transfected with the plasmid for expression of carboxy-terminally FLAG-epitope tagged 11β-HSD1 or 11β-HSD2, respectively, that were described previously. […] Non-resistant cells were removed by replacing the cell culture medium every third day for 3 weeks. […]
# as §2
# [4] = test system: CK-2; settings: 30 μM GA; cited from earlier work
# [5] = test system: murine retinal ganglion cells; settings: cited from earlier work
# [6] = test system: PKC and CK-I; settings: GL (100 μM); cited from earlier work
SMILES,IC50 [2],IC50 [3],also measured
"CC(=O)O[C@H]1CC[C@@]2(C)C(CC[C@]3(C)C2C(=O)C=C2C4C[C@@](C)(C(=O)NO)CC[C@]4(C)CC[C@]23C)C1(C)C (stereo partly drawn) [Compound 1, (3S,18R,20S)-3-(Acetyloxy)-N-hydroxy-11-oxo-olean-12-en-29-amide]",,,TNFα expression [1]: inhibit
"CC1(C)C2CC[C@]3(C)C(C(=O)C=C4C5C[C@@](C)(C(=O)NO)CC[C@]5(C)CC[C@]43C)[C@@]2(C)CC[C@@H]1O (stereo partly drawn) [Compound 2, (3S,18R,20S)-3-Hydroxy-N-hydroxy-11-oxo-olean-12-en-29-amide]",1160 nM,,"inhibition at 1 µM ([2]; Concentration 1000 nmol/L, read-out: Reduction of 11β-HSD1 Activity (%) (average ± standard deviation)): 46.7 ± 13.8%"
"CON[C@H]1CC[C@@]2(C)C(CC[C@]3(C)C2C(=O)C=C2C4C[C@@](C)(C(=O)N(C)O)CC[C@]4(C)CC[C@]23C)C1(C)C (stereo partly drawn) [Compound 10, (3S,18R,20S)-N-Hydroxy-N-methyl-3-methoxamino-11-dioxo-olean-12-en-29-amide]",> 40000 nM,547 nM,
"CONC(=O)[C@@]1(C)CC[C@]2(C)CC[C@]3(C)C(=CC(=O)C4[C@@]5(C)CC[C@H](O)C(C)(C)C5CC[C@]43C)C2C1 (stereo partly drawn) [Compound 16, (3S,18R,20S)-3-Hydroxy-N-methoxy-11-oxo-olean-12-en-29-amide]",929 nM,2130 nM,
"CC1(C)[C@@H](O)CC[C@]2(C)[C@H]3C(=O)C=C4[C@@H]5C[C@@](C)(C(=O)O)CC[C@]5(C)CC[C@@]4(C)[C@]3(C)CC[C@@H]12 [GA, Glycyrrhetinic acid]",,,phosphorylation of C3α by CK-2 [4]: completely inhibited; postsynaptic light response [5]: 30 % of control
"CC1(C)[C@@H](O[C@H]2O[C@H](C(=O)O)[C@@H](O)[C@H](O)[C@H]2O[C@@H]2O[C@H](C(=O)O)[C@@H](O)[C@H](O)[C@H]2O)CC[C@]2(C)[C@H]3C(=O)C=C4[C@@H]5C[C@@](C)(C(=O)O)CC[C@]5(C)CC[C@@]4(C)[C@]3(C)CC[C@@H]12 [GL, glycyrrhizin]",,,phosphorylation of HMGB1/2 by PKC and CK-I [6]: completely inhibits
